From patent US7998940B2, “Aptamers to von Willebrand factor and their use as thrombotic disease therapeutics” (Archemix Corp., priority 2004, dated 2011)
Where two headings read alike, the source gives them in different places. Oligonucleotides are written 5' to 3', each unit as a sugar letter and its base; * is a phosphorothioate linkage, no mark a phosphodiester; rarer units and linkages stand in square brackets, end groups in braces. Plain capitals give the bases only. [PEG] = polyethylene glycol spacer within the chain; [invdT] = inverted (3'-3') thymidine; d = 2'-deoxy (DNA); m = 2'-O-methyl

Test system: full length human vWF (SEQ ID NO 7)
Assay: dot blot KD determination and extent of binding, full length human vWF;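 note: dot blot binding of aptamers to full length human vWF across a protein titration, incubated 30 minutes at room temperature in 1x DPBS with BSA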
Conditions: for % binding @ 100 nM vWF: extent of aptamer binding at 100 nM full length human vWF; for Kd: full length human vWF, read-out: KD
[1] = Phase 1 modification, dot blot, 8 point protein titration
[2] = Phase 3 modification, dot blot, 8 point protein titration

ARC1195: ARC1172 with one residue replaced by 2'-O methyl residue (DNA dGmGdCdGdTdGdCdAdGdTdGdCdCdTdTdCdGdGdCdCdGdTdGdCdGdGdTdGdCdCdTdCdCdGdTdCdAdCdGdCdC[invdT]; aptamer)
% binding @ 100 nM vWF (Phase 1 modification): 55%
Kd [1]: 1 nM

mGmCmGmUdGdCdAmGmUmGmCmCPEGmGmGmCdCmG-s-TmGdCdGdGTmGmCdCmUdCdCmGmUdCmAmCmGmC-3T (mGmCmGmUdGdCdAmGmUmGmCmC[PEG]mGmGmCdCmG*dTmGdCdGdGdTmGmCdCmUdCdCmGmUdCmAmCmGmC[invdT]) [ARC1527]
% binding @ 100 nM vWF (Phase 4 and 5 modification): 14.1%
Kd (Phase 4 and 5 modification): 3.4 nM

ARC1361: ARC1346 with a mC to dC modification at position 36 (mGmCmGmUdGdCdAmGmUmGmCmCmUmUmCmGmGmCdCmGdTmGdCdGdGdTmGmCdCmUdCdCmGmUdCmAmCmGmC[invdT])
% binding @ 100 nM vWF (Phase 3 modification): 38.5%
Kd [2]: 7.9 nM

mGmGmCmGmUdGdCdAmGmUmGmCmCmUmUmCmGmGmCdCmGTmGdCdGdGTmGmCdCmUdCdCmGmUmCmAmCmGmCmC-3T (mGmGmCmGmUdGdCdAmGmUmGmCmCmUmUmCmGmGmCdCmGdTmGdCdGdGdTmGmCdCmUdCdCmGmUmCmAmCmGmCmC[invdT]; aptamer) [ARC1342]
% binding @ 100 nM vWF (Phase 2 modification): 33%
Kd (Phase 2 modification): 15.6 nM

ARC1236: ARC1172 with composite 2'-O methyl replacements in the stem regions (dGdGmCdGmUdGdCdAdGdTdGdCdCdTdTdCdGdGdCdCdGdTdGdCdGdGdTdGdCdCdTdCdCdGdTmCdAmCdGmCmC[invdT]; aptamer)
% binding @ 100 nM vWF (Phase 1 modification): 32%
Kd [1]: 3 nM

ARC1209: ARC1172 with one residue replaced by 2'-O methyl residue (DNA dGdGdCdGdTdGdCdAdGdTdGdCdCdTdTmCdGdGdCdCdGdTdGdCdGdGdTdGdCdCdTdCdCdGdTdCdAdCdGdCdC[invdT]; aptamer)
% binding @ 100 nM vWF (Phase 1 modification): 44%
Kd [1]: 2 nM

ARC1198: ARC1172 with one residue replaced by 2'-O methyl residue (DNA dGdGdCdGmUdGdCdAdGdTdGdCdCdTdTdCdGdGdCdCdGdTdGdCdGdGdTdGdCdCdTdCdCdGdTdCdAdCdGdCdC[invdT]; aptamer)
% binding @ 100 nM vWF (Phase 1 modification): 50%
Kd [1]: 0.9 nM

ARC1115: ARC1029 with PEG spacer replaced with a short oligonucleotide sequence, dTdTdC (DNA GGCGTGCAGTGCCTTCGGCCGTGCGGTGCCTCCGTCACGCC; unmodified DNA)
% binding @ 100 nM vWF (Phase 1 modification): 36%
Kd [1]: 2 nM
binding to human vWF (in words, dot blot): shown to bind

ARC1362: ARC1361 with single phosphorothioate phosphate backbone modification (mGmCmGmU*dGdCdAmGmUmGmCmCmUmUmCmGmGmCdCmGdTmGdCdGdGdTmGmCdCmUdCdCmGmUdCmAmCmGmC[invdT])
% binding @ 100 nM vWF (Phase 3 modification): 34.3%
Kd [2]: 9.9 nM

mCmCmGmGmCdCmG-s-TmGdCdGdGTmGmCdCmUdCdCmGmUdCmAmCmGmUmUmCmCmGmUdGdCdAmGmUmGmCmCmGmG-3T (mCmCmGmGmCdCmG*dTmGdCdGdGdTmGmCdCmUdCdCmGmUdCmAmCmGmUmUmCmCmGmUdGdCdAmGmUmGmCmCmGmG[invdT]; aptamer) [ARC1546]
% binding @ 100 nM vWF (Phase 4 and 5 modification): 26%
Kd (Phase 4 and 5 modification): 24 nM

mGmGmCmGmUdGdCdAdGTdGdCdCTTdCdGdGdCdCdGTdGdCdGdGTdGdCdCTdCdCdGTdCmAmCmGmCmC-3T (mGmGmCmGmUdGdCdAdGdTdGdCdCdTdTdCdGdGdCdCdGdTdGdCdGdGdTdGdCdCdTdCdCdGdTdCmAmCmGmCmC[invdT]; aptamer) [ARC1338]
% binding @ 100 nM vWF (Phase 2 modification): 21%
Kd (Phase 2 modification): 7.4 nM

mCmGmUdGdCdAmGmUmGmCmCmUmUmUmGmGmCdCmG-s-TmGdCdGdGTmGmCdCmUdCdCmGmUmCmAmCmG-3T (mCmGmUdGdCdAmGmUmGmCmCmUmUmUmGmGmCdCmG*dTmGdCdGdGdTmGmCdCmUdCdCmGmUmCmAmCmG[invdT]; aptamer) [ARC1530]
% binding @ 100 nM vWF (Phase 4 and 5 modification): 19.2%
Kd (Phase 4 and 5 modification): 15 nM

ARC1210: ARC1172 with one residue replaced by 2'-O methyl residue (DNA dGdGdCdGdTdGdCdAdGdTdGdCdCdTdTdCmGdGdCdCdGdTdGdCdGdGdTdGdCdCdTdCdCdGdTdCdAdCdGdCdC[invdT]; aptamer)
% binding @ 100 nM vWF (Phase 1 modification): 49%
Kd [1]: 2 nM

mCmCmGmGmCdCmG-s-TmGdCdGdGTmGmCdCmUdCdCmGmUmCmAmCmUmUmUmGmUdGdCdAmGmUmGmCmCmGmG-3T (mCmCmGmGmCdCmG*dTmGdCdGdGdTmGmCdCmUdCdCmGmUmCmAmCmUmUmUmGmUdGdCdAmGmUmGmCmCmGmG[invdT]; aptamer) [ARC1535]
% binding @ 100 nM vWF (Phase 4 and 5 modification): 48.3%
Kd (Phase 4 and 5 modification): 27.1 nM

ARC1377: ARC1361 with single phosphorothioate phosphate backbone modification (mGmCmGmUdGdCdAmGmUmGmCmCmUmUmCmGmGmCdCmGdTmGdCdGdGdTmGmCdCmU*dCdCmGmUdCmAmCmGmC[invdT]; aptamer)
% binding @ 100 nM vWF (Phase 3 modification): 30.9%
Kd [2]: 7.4 nM

ARC1381: ARC1361 with single phosphorothioate phosphate backbone modification (mGmCmGmUdGdCdAmGmUmGmCmCmUmUmCmGmGmCdCmGdTmGdCdGdGdTmGmCdCmUdCdCmGmUdC*mAmCmGmC[invdT])
% binding @ 100 nM vWF (Phase 3 modification): 35.8%
Kd [2]: 8.7 nM

ARC1230: ARC1172 with one residue replaced by 2'-O methyl residue (dGdGdCdGdTdGdCdAdGdTdGdCdCdTdTdCdGdGdCdCdGdTdGdCdGdGdTdGdCdCdTdCdCdGdTdCmAdCdGdCdC[invdT]; aptamer)
% binding @ 100 nM vWF (Phase 1 modification): 46%
Kd [1]: 3 nM

ARC1232: ARC1172 with one residue replaced by 2'-O methyl residue (dGdGdCdGdTdGdCdAdGdTdGdCdCdTdTdCdGdGdCdCdGdTdGdCdGdGdTdGdCdCdTdCdCdGdTdCdAdCmGdCdC[invdT]; aptamer)
% binding @ 100 nM vWF (Phase 1 modification): 51%
Kd [1]: 1 nM

ARC1223: ARC1172 with one residue replaced by 2'-O methyl residue (dGdGdCdGdTdGdCdAdGdTdGdCdCdTdTdCdGdGdCdCdGdTdGdCdGdGdTdGdCmCdTdCdCdGdTdCdAdCdGdCdC[invdT]; aptamer)
% binding @ 100 nM vWF (Phase 1 modification): 26%
Kd [1]: 36 nM

mGmCmGmUdGdCdAmGmUmGmCmCmUmUmUmGmGmCdCmG-s-TmGdCdGdGTmGmCdCmUdCdCmGmUmCmAmCmGmC-3T (mGmCmGmUdGdCdAmGmUmGmCmCmUmUmUmGmGmCdCmG*dTmGdCdGdGdTmGmCdCmUdCdCmGmUmCmAmCmGmC[invdT]) [ARC1526]
% binding @ 100 nM vWF (Phase 4 and 5 modification): 29.0%
Kd (Phase 4 and 5 modification): 4.7 nM

mGmCmGmUdGdCdAmGmUmGmCmCmUmUmCmGmGmCdCmG-s-TmGdCdGdGTmGmCdCmUdCdCmGmUmCmAmCmGmC-3T (mGmCmGmUdGdCdAmGmUmGmCmCmUmUmCmGmGmCdCmG*dTmGdCdGdGdTmGmCdCmUdCdCmGmUmCmAmCmGmC[invdT]) [ARC1524]
% binding @ 100 nM vWF (Phase 4 and 5 modification): 26.5%
Kd (Phase 4 and 5 modification): 5.7 nM

ARC1233: ARC1172 with one residue replaced by 2'-O methyl residue (dGdGdCdGdTdGdCdAdGdTdGdCdCdTdTdCdGdGdCdCdGdTdGdCdGdGdTdGdCdCdTdCdCdGdTdCdAdCdGmCdC[invdT]; aptamer)
% binding @ 100 nM vWF (Phase 1 modification): 39%
Kd [1]: 2 nM

ARC1220: ARC1172 with one residue replaced by 2'-O methyl residue (dGdGdCdGdTdGdCdAdGdTdGdCdCdTdTdCdGdGdCdCdGdTdGdCdGdGmUdGdCdCdTdCdCdGdTdCdAdCdGdCdC[invdT]; aptamer)
% binding @ 100 nM vWF (Phase 1 modification): 17%
Kd [1]: 11 nM

ARC1376: ARC1361 with single phosphorothioate phosphate backbone modification (mGmCmGmUdGdCdAmGmUmGmCmCmUmUmCmGmGmCdCmGdTmGdCdGdGdTmGmCdC*mUdCdCmGmUdCmAmCmGmC[invdT]; aptamer)
% binding @ 100 nM vWF (Phase 3 modification): 31.3%
Kd [2]: 4.4 nM

ARC1371: ARC1361 with single phosphorothioate phosphate backbone modification (mGmCmGmUdGdCdAmGmUmGmCmCmUmUmCmGmGmCdCmGdTmGdC*dGdGdTmGmCdCmUdCdCmGmUdCmAmCmGmC[invdT])
% binding @ 100 nM vWF (Phase 3 modification): 32.1%
Kd [2]: 8.4 nM

mCmGmGmCdCmG-s-TmGdCdGdGTmGmCdCmUdCdCmGmUmCmAmCmUmUmUmGmUdGdCdAmGmUmGmCmCmG-3T (mCmGmGmCdCmG*dTmGdCdGdGdTmGmCdCmUdCdCmGmUmCmAmCmUmUmUmGmUdGdCdAmGmUmGmCmCmG[invdT]; aptamer) [ARC1534]
% binding @ 100 nM vWF (Phase 4 and 5 modification): 25.6%
Kd (Phase 4 and 5 modification): 62.8 nM

ARC1203: ARC1172 with one residue replaced by 2'-O methyl residue (DNA dGdGdCdGdTdGdCdAdGmUdGdCdCdTdTdCdGdGdCdCdGdTdGdCdGdGdTdGdCdCdTdCdCdGdTdCdAdCdGdCdC[invdT]; aptamer)
% binding @ 100 nM vWF (Phase 1 modification): 40%
Kd [1]: 3 nM

ARC1213: ARC1172 with one residue replaced by 2'-O methyl residue (DNA dGdGdCdGdTdGdCdAdGdTdGdCdCdTdTdCdGdGdCmCdGdTdGdCdGdGdTdGdCdCdTdCdCdGdTdCdAdCdGdCdC[invdT]; aptamer)
% binding @ 100 nM vWF (Phase 1 modification): 43%
Kd [1]: 6 nM

ARC1238: ARC1172 with composite 2'-O methyl replacements in the stem regions (dGdGdCdGdTdGdCdAdGdTmGdCdCdTdTdCmGmGdCdCdGdTdGdCdGdGdTdGdCdCdTdCdCdGdTdCdAdCdGdCdC[invdT]; aptamer)
% binding @ 100 nM vWF (Phase 1 modification): 43%
Kd [1]: 2 nM

ARC1367: ARC1361 with single phosphorothioate phosphate backbone modification (mGmCmGmUdGdCdAmGmUmGmCmCmUmUmCmGmGmCdC*mGdTmGdCdGdGdTmGmCdCmUdCdCmGmUdCmAmCmGmC[invdT]; aptamer)
% binding @ 100 nM vWF (Phase 3 modification): 30.4%
Kd [2]: 13.9 nM
